Source: patent US10294202B2, “Pyrrolidinones as herbicides” (FMC Corporation, priority 2013, dated 2019)

Legend:
corn [1] = assay: Test A pre-/postemergence herbicide test; format: in vivo, Zea mays
In short: (§1)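 Approximately 10 days after treatment in the greenhouse, plants were compared with untreated controls and given a 0–100 visual injury rating. Applications: preemergence directed soil spray; postemergence on 2–10 cm plants at the one- to two-leaf stage.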

corn [2] = assay: Test C pre-/postemergence herbicide test; format: in vivo, Zea mays; conditions: Preemergence; for Plant response rating, Corn: 125 g ai/ha; for Plant response rating (scale of 0 to 100), Corn: 250 g ai/ha
In short: (§2)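 Plants grown and held in a greenhouse for 13 to 15 days post-spray, then rated 0–100 by visual comparison with controls. Pre treatments targeted seeds in loam and sand; post treatments targeted 1- to 4-leaf plants in peat-based potting medium.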

barnyardgrass [3] = assay: Test C pre-/postemergence herbicide test; format: in vivo, Echinochloa crus-galli; conditions: Preemergence; for Plant response rating (scale of 0 to 100; 0 is no effect, 100 is complete control), Barnyardgrass: 250 g ai/ha
In short: as §2

barnyardgrass [4] = assay: Test A pre-/postemergence herbicide test; format: in vivo, Echinochloa crus-galli
In short: as §1

foxtail, giant = assay: Test C pre-/postemergence herbicide test; format: in vivo, Setaria faberii; conditions: Preemergence; for Plant response rating, Foxtail, Giant: 125 g ai/ha; for Plant response rating (scale of 0 to 100), Foxtail, Giant: 250 g ai/ha
In short: as §2

ducksalad = assay: Test B flooded paddy test; format: in vivo, Heteranthera limosa; conditions: 1000 g ai/ha, Flood; scale of 0 to 100 where 0 is no effect and 100 is complete control
In short: (§3)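 2-leaf plants; flood 3 cm over soil; compound into paddy water; depth held. Greenhouse 13–15 d. Visual rating vs controls, 0 (no effect) to 100 (complete control); dash = not tested.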

rice = assay: Test B flooded paddy test; format: in vivo, Oryza sativa; conditions: 1000 g ai/ha, Flood; scale of 0 to 100 where 0 is no effect and 100 is complete control
In short: as §3

barnyardgrass [5] = assay: Test B flooded paddy test; format: in vivo, Echinochloa crus-galli; conditions: 1000 g ai/ha, Flood; scale of 0 to 100 where 0 is no effect and 100 is complete control
In short: as §3

pigweed = assay: Test A pre-/postemergence herbicide test; format: in vivo, Amaranthus retroflexus
In short: as §1

soybean = assay: Test C pre-/postemergence herbicide test; format: in vivo, Glycine max; conditions: Preemergence; for Plant response rating, Soybean: 125 g ai/ha; for Plant response rating (scale of 0 to 100), Soybean: 250 g ai/ha
In short: as §2

oilseed rape = assay: Test C pre-/postemergence herbicide test; format: in vivo, Brassica napus; conditions: Preemergence; for Plant response rating, Oilseed Rape: 125 g ai/ha; for Plant response rating (scale of 0 to 100), Oilseed Rape: 250 g ai/ha
In short: as §2

nutsedge, yellow = assay: Test C pre-/postemergence herbicide test; format: in vivo, Cyperus esculentus; conditions: Preemergence; for Plant response rating, Nutsedge, Yellow: 125 g ai/ha; for Plant response rating (scale of 0 to 100), Nutsedge, Yellow: 250 g ai/ha
In short: as §2

[6] = Postemergence, 125 g ai/ha, 0 to 100 scale, 0 is no effect, 100 is complete control
[7] = Postemergence, 500 g ai/ha, 0 to 100 scale (0 no effect, 100 complete control)
[8] = Preemergence, 125 g ai/ha, 0 to 100 scale where 0 is no effect and 100 is complete control
[9] = preemergence, 500 g ai/ha, 0 to 100 scale, 0 is no effect and 100 is complete control
[10] = 31 g ai/ha, scale 0 to 100, 0 is no effect and 100 is complete control
[11] = 62 g ai/ha, scale 0 to 100 (0 no effect, 100 complete control)
[12] = scale 0 to 100 (0 no effect, 100 complete control)
[13] = 125 g ai/ha, scale 0 to 100 (0 no effect, 100 complete control)

Structure (SMILES)	Plant response rating, Corn (corn [1]; [6])	Plant response rating, Corn (corn [1]; [7])	Plant response rating, Corn (corn [1]; [8])	Plant response rating, Corn (corn [1]; [9])	Corn plant response rating (corn [2]; [10])	Corn plant response rating (corn [2]; [11])	Plant response rating, Corn (corn [2]; [12])	Plant response rating (scale of 0 to 100), Corn (corn [2])	Barnyardgrass plant response rating (barnyardgrass [3]; [10])	Plant response rating, Barnyardgrass (barnyardgrass [3]; [13])	Plant response rating (scale of 0 to 100; 0 is no effect, 100 is complete control), Barnyardgrass (barnyardgrass [3])	Plant response rating, Barnyardgrass (barnyardgrass [4]; [6])	Plant response rating, Barnyardgrass (barnyardgrass [4]; [7])	Plant response rating, Barnyardgrass (barnyardgrass [4]; [8])	Plant response rating, Barnyardgrass (barnyardgrass [4]; [9])	Foxtail, Giant plant response rating (foxtail, giant; [10])	Foxtail, Giant plant response rating (foxtail, giant; [11])	Plant response rating, Foxtail, Giant (foxtail, giant; [12])	Plant response rating (scale of 0 to 100), Foxtail, Giant (foxtail, giant)	Plant response rating, Ducksalad (ducksalad)	also measured
O=C1NCC(c2ccc(C(F)(F)F)c(F)c2)C1C(=O)Nc1ccccc1F (racemic) [Compound 246]	20	30	0	0	0	0	5	0	20	75	90	70	70	80	90	85	90	95	95	95	Plant response rating, Barnyardgrass (barnyardgrass [3]; 62 g ai/ha, scale 0 to 100): 75; Plant response rating, Rice (rice): 20; Plant response rating, Barnyardgrass (barnyardgrass [5]): 60; Plant response rating, Pigweed (pigweed; [6]): 0; Plant response rating, Pigweed (pigweed; [7]): 0; Plant response rating, Pigweed (pigweed; [8]): 0; Plant response rating, Pigweed (pigweed; [9]): 0; Soybean plant response rating (soybean; [10]): 0; Soybean plant response rating (soybean; [11]): 0; Plant response rating, Soybean (soybean; [12]): 0; Plant response rating (scale of 0 to 100), Soybean (soybean): 10; Oilseed Rape plant response rating (oilseed rape; [10]): 0; Oilseed Rape plant response rating (oilseed rape; [11]): 30; Plant response rating, Oilseed Rape (oilseed rape; [12]): 0; Plant response rating (scale of 0 to 100), Oilseed Rape (oilseed rape): 30; Nutsedge, Yellow plant response rating (nutsedge, yellow; [10]): 85; Nutsedge, Yellow plant response rating (nutsedge, yellow; [11]): 100; Plant response rating, Nutsedge, Yellow (nutsedge, yellow; [12]): 100; Plant response rating (scale of 0 to 100), Nutsedge, Yellow (nutsedge, yellow): 0
O=C1NCC(c2ccc(C(F)(F)F)c(F)c2)C1C(=O)Nc1cccc(F)c1F (racemic) [Compound 247]	0	20	0	0	5	15	60	60	15	90	90	60	80	90	90	95	95	98	100	95	Barnyardgrass plant response rating (barnyardgrass [3]; [11]): 85; Plant response rating, Rice (rice): 0; Plant response rating, Barnyardgrass (barnyardgrass [5]): 85; Plant response rating, Pigweed (pigweed; [6]): 0; Plant response rating, Pigweed (pigweed; [7]): 0; Plant response rating, Pigweed (pigweed; [8]): 0; Plant response rating, Pigweed (pigweed; [9]): 0; Soybean plant response rating (soybean; [10]): 0; Soybean plant response rating (soybean; [11]): 0; Plant response rating, Soybean (soybean; [12]): 0; Plant response rating (scale of 0 to 100), Soybean (soybean): 0; Oilseed Rape plant response rating (oilseed rape; [10]): 5; Oilseed Rape plant response rating (oilseed rape; [11]): 30; Plant response rating, Oilseed Rape (oilseed rape; [12]): 30; Plant response rating (scale of 0 to 100), Oilseed Rape (oilseed rape): 80; Nutsedge, Yellow plant response rating (nutsedge, yellow; [10]): 0; Nutsedge, Yellow plant response rating (nutsedge, yellow; [11]): 20; Plant response rating, Nutsedge, Yellow (nutsedge, yellow; [12]): 20; Plant response rating (scale of 0 to 100), Nutsedge, Yellow (nutsedge, yellow): 0
O=C1NCC(c2ccc(C(F)(F)F)nc2)C1C(=O)Nc1ccccc1F (racemic) [Compound 262]	0	0	0	0	0	0	10	10	45	90	95	60	70	80	90	20	70	95	95	100	Barnyardgrass plant response rating (barnyardgrass [3]; [11]): 70; Plant response rating, Rice (rice): 0; Plant response rating, Barnyardgrass (barnyardgrass [5]): 20; Plant response rating, Pigweed (pigweed; [6]): 0; Plant response rating, Pigweed (pigweed; [7]): 0; Plant response rating, Pigweed (pigweed; [8]): 50; Plant response rating, Pigweed (pigweed; [9]): 70; Soybean plant response rating (soybean; [10]): 0; Soybean plant response rating (soybean; [11]): 0; Plant response rating, Soybean (soybean; [12]): 0; Plant response rating (scale of 0 to 100), Soybean (soybean): 0; Oilseed Rape plant response rating (oilseed rape; [10]): 0; Oilseed Rape plant response rating (oilseed rape; [11]): 35; Plant response rating, Oilseed Rape (oilseed rape; [12]): 35; Plant response rating (scale of 0 to 100), Oilseed Rape (oilseed rape): 70; Nutsedge, Yellow plant response rating (nutsedge, yellow; [10]): 75; Nutsedge, Yellow plant response rating (nutsedge, yellow; [11]): 0; Plant response rating, Nutsedge, Yellow (nutsedge, yellow; [12]): 0; Plant response rating (scale of 0 to 100), Nutsedge, Yellow (nutsedge, yellow): 0
O=C1NCC(c2ccc(C(F)(F)F)nc2)C1C(=O)Nc1cccc(F)c1F (racemic) [Compound 263]	40	60	0	70	0	0	0	10	75	95	98	70	80	80	90	65	95	98	98	90	Barnyardgrass plant response rating (barnyardgrass [3]; [11]): 90; Plant response rating, Rice (rice): 0; Plant response rating, Barnyardgrass (barnyardgrass [5]): 0; Plant response rating, Pigweed (pigweed; [7]): 70; Plant response rating, Pigweed (pigweed; [8]): 60; Plant response rating, Pigweed (pigweed; [9]): 100; Soybean plant response rating (soybean; [10]): 0; Soybean plant response rating (soybean; [11]): 0; Plant response rating, Soybean (soybean; [12]): 100; Plant response rating (scale of 0 to 100), Soybean (soybean): 0; Oilseed Rape plant response rating (oilseed rape; [10]): 40; Oilseed Rape plant response rating (oilseed rape; [11]): 60; Plant response rating, Oilseed Rape (oilseed rape; [12]): 60; Plant response rating (scale of 0 to 100), Oilseed Rape (oilseed rape): 90; Nutsedge, Yellow plant response rating (nutsedge, yellow; [10]): 0; Nutsedge, Yellow plant response rating (nutsedge, yellow; [11]): 0; Plant response rating, Nutsedge, Yellow (nutsedge, yellow; [12]): 100; Plant response rating (scale of 0 to 100), Nutsedge, Yellow (nutsedge, yellow): 0
